Test results reported in a melting point compilation (Tetko et al.; mined from patent text by program, amines drawn as free bases though some values may be those of a salt).

| SMILES | melting point |
| --- | --- |
| CNC(=O)OC1c2ccccc2C(=O)N1c1ccc2ccc(Cl)nc2n1 (stereo not given) | 260 °C |
| COCc1ccc(Cl)cc1C(=O)OC | 44 to 45 °C |
| COCCN(C1CC(C)(C)Oc2ccc(O)cc21)S(C)(=O)=O (stereo not given) | 115 to 117 °C |
| CCOc1ccc(Nc2ncc3cc(-c4c(Cl)cccc4Cl)c(=O)n(CC)c3n2)cc1 | 192 to 194 °C |
| CCC(C)(CC)NC(=S)Nc1cc(Cl)cc(Cl)c1 | 128 to 132 °C |
| CC(C)CCCC(C)C1CCC2C3CCC4CC(=O)CC(C)C4(C)C3CCC12C (stereo not given) | 132 to 133 °C |
| COc1cc(CCc2ccc(N)nn2)cc(OC)c1OC | 130 to 132 °C |
| Fc1ccc(Cn2c(NC3CCN(CCc4ccccc4)C3)nc3ccccc32)cc1 (stereo not given) | 126 °C |
| N#Cc1ccc(-c2cccc(C=O)n2)cc1 | 158 to 159 °C |
| O=C(Cc1ccccc1)Nc1ncc(-c2ccc(O)cc2)nc1Cc1ccccc1 | 259 to 261 °C |
| CCCc1ccc2oc(Cc3ccc(O)cc3)c(C)c2c1O | 117 to 120 °C |
| CCOC(=O)c1cn(CC)c2nc(N3CCC(NC(C)=O)C3)c(F)cc2c1=O (stereo not given) | 266 to 269 °C |
| COc1cccc(CC(=O)O)c1OCCCn1cc(C(=O)NCc2ccc(Cl)cc2Cl)c(OC(C)C)n1 | 134 to 135 °C |
| Cn1c([N+](=O)[O-])cnc1-c1nnc2ccc(N=CN3CCC(O)CC3)nn12 | 188 to 190 °C |
| O=C(Cn1nc(C(F)(F)F)cc1Cl)N1CCC(c2nc(C3=NOC(c4ccccc4)C3)cs2)CC1 (stereo not given) | 128 to 131 °C |
| N#Cc1cc(Br)c(OC(=O)OCI)c(Br)c1 | 103 to 105 °C |
| O=C1CCC(c2ccccc2)(c2ccccc2)C2CN(C(Cc3ccccc3)=NCCCc3ccccc3)CC12 (stereo not given) | 144 °C |
| COc1ccc(-c2cc(=O)n(-c3ccccn3)nc2C)cc1 | 156 to 157 °C |
| CC(=O)OCC(C)(Sc1cc2ccccc2[nH]1)c1ccccc1 (stereo not given) | 105 to 106 °C |
| COc1cccc(Nc2cc(Nc3ccc(F)c(Cl)c3)ncn2)c1 | 214 to 216 °C |
| C[C@H](Cn1cnnn1)n1cnc2cc3c(=O)n(C4CC4)nnc3cc2c1=O | 245 to 246 °C |
| Cc1cc(-c2[nH]c3ccc(N)cc3c2C)cc(C)c1O | 184 to 185 °C |
| Nc1ncc(-c2ccc(=O)[nH]n2)c(-c2ccccc2)n1 | > 280 °C |
| CCCCOC(=O)NCCc1nc(-c2ccc(-c3ccccc3)cc2)c(C)[nH]1 | 143 to 144 °C |
| COC(=O)C(C#N)=C(N)c1c(-c2ccccc2)noc1N | 256 °C |

| SMILES | melting point |
| --- | --- |
| Cc1ccnc(NC(c2ccc(C(F)(F)F)cc2)c2ccc3cccnc3c2O)c1 (stereo not given) | 104 to 107 °C |
| Cc1nc(NCCN2CCOCC2)c2nc(-c3ccccc3)cc-2[nH]1 | > 280 °C |
| C#CC(O)c1ncn(C(c2ccccc2)(c2ccccc2)c2ccccc2)n1 (stereo not given) | 138 to 139 °C |
| C=CCn1c(=O)n(CCN2CCN(c3ccccc3OC)CC2)c(=O)c2cscc21 | 131 to 132 °C |
| Cc1[nH]cnc1CSCCNc1[nH]cc(-c2ccccc2)c1[N+](=O)[O-] | 182 to 184 °C |
| CC(Cc1ccccc1)CN(C)C1CCC(c2ccc3[nH]c(=O)oc3c2)CC1 (stereo not given) | 43 to 48 °C |
| Cc1cc(=O)oc2cccc(SC(=O)N(C)C)c12 | 129 °C |
| O=C(c1cc2cc([N+](=O)[O-])ccc2[nH]1)N1CC(CCl)c2c1cc([N+](=O)[O-])c1ccccc21 (stereo not given) | > 300 °C |
| O=Cc1ccc(-c2ccc(-c3cn([C@H]4CN5CCC4CC5)nn3)cc2)s1 | 228 °C |
| CSC(=C[N+](=O)[O-])N1CCCCC1 | 65 to 67 °C |
| O=C(Cl)Oc1ccc(Cl)c(Cl)c1 | 51 to 53 °C |
| O=C(O)c1cccc2nc(C(F)(F)C(F)(F)C(F)(F)F)n(Cc3ccccc3Cl)c12 | 213 to 214 °C |
| COc1ccc2c(Cc3c(Cl)cncc3Cl)nn(CC(=O)O)c(=O)c2c1 | 221 to 222 °C |
| CC=CN1CC([N+](=O)[O-])=CN(C(C)c2ccc(Cl)nc2)C1(C)N (stereo not given) | 148 to 150 °C |
| CCn1ncc2cc3c(nc21)C(Cl)c1ccccc1CC3 (stereo not given) | 107 to 110 °C |
| O=C(O)CCc1cc2ccccc2n1S(=O)(=O)c1ccccc1 | 180 to 185 °C |
| Fc1ccc(-c2ccn(C3CN4CCC3CC4)c2-c2ccncc2)cc1 (stereo not given) | 229 to 230 °C |
| CCCCOc1cc(/C=C(\OCC)C(=O)O)ccc1OCCc1ccc(NS(C)(=O)=O)cc1 | 141 °C |
| O=c1cc(-c2cccc(F)c2)oc2ccc(OCCCCCCN3CCC(O)CC3)cc12 | 136 to 137 °C |
| CCCCCCCCCCCCOc1cc(O)c(C(=O)c2ccccc2)c(OCCCCCCCCCCCC)c1 | 37 to 38 °C |
| CC(C)C(=O)N(Cc1ccccc1)c1nnn(C)n1 | 65 °C |
| Oc1ccc(-n2ccc(Nc3ccccc3)n2)cc1 | 182 to 185 °C |
| CN(C)CCNCCc1ccc(Nc2ncc3c(n2)-c2ccccc2C(c2cccc(Br)c2)C3)cc1 (stereo not given) | 75 to 77 °C |
| COC(=O)[C@H](Cc1ccc([N+](=O)[O-])cc1)NC(=O)c1c(C)cccc1Cl | 120 to 123 °C |
| C#Cc1cccc(-c2cccnc2F)c1 | 45 to 47 °C |

Next, values leading:

| melting point | SMILES |
| --- | --- |
| 238 °C | Nc1ccc(Nc2c(NCc3ccccc3)cc(C(=O)O)cc2S(=O)(=O)Nc2ccc(N)cc2)cc1 |
| 144 to 147 °C | Cc1ccc(-n2cc(C)cc2-c2ccc(S(N)(=O)=O)cc2)cc1 |
| 95 to 97 °C | COc1ccccc1N1CCN(C(=O)Cc2ccccc2Br)CC1 |
| 163 to 165 °C | CN(C(=O)c1ccc2nonc2c1)C1CCN(C=O)CC1 |
| 68 to 71 °C | CCCCCCCCCCOCC(COCCCCCCCCCC)(CC(=O)O)CC(=O)O |
| 321 to 324 °C | O=C1N=C(N2CCCCCC2)SC1=Cc1cccc(-c2ccc(O)c(C34CC5CC(CC(C5)C3)C4)c2)c1 |
| 174 to 175 °C | COC(=O)CCC(C)C(=O)N1CCC[C@H]1C(=O)O (stereo not given in full) |
| 236 to 238 °C | Nc1c2c(nc3ccccc13)CCCC2=O |
| 183 to 186 °C | C[C@@H]1c2onc(-c3ccc(Cl)cc3)c2CC[C@H]1C(=O)O (relative stereo) |
| 254 to 259 °C | O=c1[nH]c2ccccc2c2c(C(O)CC3CCCCC3)n(-c3ccccc3)nc12 (stereo not given) |
| 126 °C | CCCCCn1cc(C(=O)O)c(=O)cc1C |
| 94 to 96 °C | Cc1ccccc1CC(Cc1ccccc1C)C(=O)O |
| 189 to 190 °C | COc1cc(-c2cnc3[nH]cc(C(=O)C(C)C)c3n2)cc(OC)c1OC |
| 79.4 to 80 °C | CNN(NC)C(=O)Sc1cc(C)ccc1C(=O)OC |
| 88 to 90 °C | CC(C)(COc1ccc(Cl)cc1)C(=O)Cn1cncn1 |
| 85 to 87 °C | Cc1n[nH]c(C)c1Oc1cc(Cl)cc(Cl)c1 |
| 86 to 91 °C | CCOC(=O)C1C(=O)N(C)c2ccc(Cl)cc2S1(=O)=O (stereo not given) |
| 171 to 174 °C | Cc1onc(-c2ccccc2)c1-c1ccc(S(N)(=O)=O)cc1 |
| 127 °C | CCC=C(Cc1ccc(Cl)cc1Cl)n1cncn1 |
| 96 to 100 °C | CCOC(=O)Cc1c([N+](=O)[O-])cc(O)c2ccccc12 |
| 140 to 141 °C | COCC(=O)Nc1cc(NC(=O)COC)cc(C(=O)OC)c1 |
| 153 to 154 °C | C=C(CNNC(=O)OC(C)(C)C)c1ccccc1 |
| 142 to 145 °C | O=C(C=Cc1ccccc1)c1cc(Cl)ccc1O |
| 179 to 180 °C | COc1cccc(OC)c1C=CC(=O)c1c(OC)cccc1OC |
| 178 to 180 °C | CC(C)(C)OC(=O)NC1CCC(C(=O)N2CCC(c3[nH]nc4c3C(=O)c3c(NC(=O)NN5CCOCC5)cccc3-4)CC2)CC1 (stereo not given) |

| melting point | SMILES |
| --- | --- |
| 214 to 215 °C | Cc1noc(NC(=O)N2CCN(c3nccc(-c4ccc(F)c(F)c4)n3)CC2)c1C |
| 162 °C | Cc1cccc(-c2n[nH]cc2-c2ccc(F)c(-c3ncc(C(C)(C)O)cn3)c2)n1 |
| 191 to 192 °C | COc1ccc(-c2nc(C(=O)C(F)(F)F)[nH]c2-c2ccc(OC)cc2)cc1 |
| 86 to 87 °C | CC1COc2ccccc2O1 (stereo not given) |
| 100 to 101 °C | CCOC(CCN(C(=O)c1cccs1)c1nc(-c2cc(-c3ccccc3)no2)cs1)OCC |
| 160 to 163 °C | Cc1cc(C#N)c2c(c1C)C(=O)CC2 |
| 134 to 148 °C | COc1cc(C(=O)N2CCC(CCN3CCCN(c4nc5ccccc5n4CCOCC#N)CC3)(c3ccccc3)C2)cc(OC)c1OC (stereo not given) |
| 110 to 120 °C | O=C(O)c1ccc(CNC(=O)C2Cc3ccccc3N2S(=O)(=O)c2ccc(-c3cccc(C(F)(F)F)c3)cc2)c(Cl)c1 (stereo not given) |
| 246 to 249 °C | CC(=O)Nc1ccc(-c2cccc(C3=NCC(C)(C)c4ccc5c(c43)CC(C)(C)O5)c2)cc1 |
| 154 to 156 °C | C#CCCCOc1cc(/C=C/C(=O)Nc2ccccc2C(=O)O)ccc1OC |
| 144 °C | CC(=O)OC1CSC(Oc2c(C)ccnc2Cl)C(OC(C)=O)C1OC(C)=O (stereo not given) |
| 120 to 124 °C | CCc1ccc2c(c1)C1CN(C(=O)CCC(=O)c3ccc(F)cc3)CCC1N2 (stereo not given) |
| 292 to 296 °C | CCOC(=O)C(=C1SC(=S)N(CC(=O)O)C1=O)c1csc(NC(C)=O)n1 |
| 80 to 82 °C | CCOC(=O)C(C)N1C(=O)C(C)Oc2c(N3CCOCC3)nc(C)nc21 (stereo not given) |
| 95 to 97 °C | C=CC(=O)OC12Oc3cc(C(C)C)ccc3C1(O)C(=O)c1ccccc12 (stereo not given) |
| 103 to 105 °C | CCOC(=O)c1cc(C#N)c(C)nc1NC |
| 289 °C | O=c1c(-c2ccc(F)cc2)coc2c(O)c(O)ccc12 |
| 216 °C | CC(=O)OCC(=O)C1(OC(C)=O)CCC2C3CC(C)C4=CC(=O)C=CC4(C)C3C(O)CC21C (stereo not given) |
| 166 to 167 °C | C=CCn1nc(-c2sc(C(=O)NC(C)C)nc2-c2ccccc2)ccc1=O |
| 119 to 120 °C | CN(C)CC=CC(=O)Nc1cc2c(Nc3cc(Cl)c(Cl)cc3F)ncnc2cc1OCCOCCOCCOCCF |
| 71 to 72 °C | CC(C)=CCS(=O)(=O)c1ccc(C)cc1 |
| 104 °C | O=CC=Cc1cnc(-c2ccccc2)s1 |
| 147 to 149 °C | CC(=O)Nc1nnc2c3c(c(N4CCOCC4)nn12)CCCC3 |
| 78 to 83 °C | CC=CCn1c(C)c(CC)c2cnnc(OCc3ccc(F)cc3)c21 |
| 220 to 224 °C | CC(=O)N1CCc2c(c3ccc(-n4ccc(OCc5ccc(F)cn5)cc4=O)cc3n2C)C1 |
